Laboratory results published in patent US5084453A, “1-carboxy-1-vinyloxyimino aminothiazole cephalosporin derivatives” (priority 1988, dated 1992).
Values after ≈ are worked out from the molar mass of the structure shown. Where two headings read alike, the source gives them in different places.

Assays:
Assay in all cases: in vitro antibacterial activity, agar plate dilution method
Type in all cases: cell-based
Ps. cepacia 23 = system: Ps. cepacia 23
Procedure: (§1) Now, the in vitro antibacterial activities of the compounds of the present invention against various microorganisms, were measured by the following agar plate dilution method.
(§2) One platinum loopfull of each test microorganism incubated overnight in Mueller Hinton broth, was inoculated to Mueller Hinton agar (MH agaer). Such culture media containing various antibiotics in various concentrations were prepared. After incubation at 37° C. for 16 hours, the minimum inhibitory concentrations (MIC μg/ml) were measured.

P. vulgaris No. 33* = conditions: Proteus vulgaris
Procedure: as §1, §2

K. pneumoniae No. 42* = conditions: Klebsiella pneumoniae
Procedure: as §1, §2

K. oxytoca GN10650* = conditions: Klebsiella oxytoca
Procedure: as §1, §2

E. coli CSH2(RK1)* = conditions: Escherichia coli, 16 h
Procedure: as §1, §2

S. marcescens IAM 1184 = conditions: Serratia marcescens
Procedure: as §1, §2

Ps. aeruginosa AKR17 = conditions: Pseudomonas aeruginosa, AKR17; 10^6 CFU/ml; Mueller Hinton agar, 37° C., 16 hours; read-out: MIC
Procedure: as §1, §2

K. pneumoniae PC1-602 = conditions: Klebsiella pneumoniae
Procedure: as §1, §2

A. calcoaceticus No. 4 = conditions: Acinetobacter calcoaceticus
Procedure: as §1, §2

Ps. aeruginosa AK 109 = conditions: Pseudomonas aeruginosa
Procedure: as §1, §2

E. coli GN5482* = conditions: Escherichia coli, GN5482, 16 h
Procedure: as §1, §2

Ps. aeruginosa IFO3445 = conditions: Pseudomonas aeruginosa
Procedure: as §1, §2

S. aureus 209P NIHJ-JC1 = conditions: Staphylococcus aureus
Procedure: as §1, §2

M. morganii GN5407* = conditions: Morganella morganii
Procedure: as §1, §2

E. cloacae 963 = system: E. cloacae 963
Procedure: as §1, §2

E. coli NIHJ JC2 = conditions: Escherichia coli, NIHJJC2; 10^6 CFU/ml; Mueller Hinton agar, 37° C., 16 hours; read-out: MIC
Procedure: as §1, §2

E. coli CSH(RE45)* = conditions: Escherichia coli; 10^6 CFU/ml; β-Lactamase-producing strain; 37° C., 16 hours; read-out: MIC
Procedure: as §1, §2

S. marcescens No. 16-2* = conditions: Serratia marcescens
Procedure: as §1, §2

E. cloacae Nek 39* = conditions: Enterobacter cloacae
Procedure: as §1, §2

P. vulgaris HX-19 = conditions: Proteus vulgaris
Procedure: as §1, §2

[1] = 10^6 CFU/ml, β-Lactamase-producing strain, 37° C., 16 hours, read-out: MIC
[2] = GN10650, 10^6 CFU/ml, β-Lactamase-producing strain, 37° C., 16 hours, read-out: MIC
[3] = IAM1184, 10^6 CFU/ml, Mueller Hinton agar, 37° C., 16 hours, read-out: MIC
[4] = PC1602, 10^6 CFU/ml, Mueller Hinton agar, 37° C., 16 hours, read-out: MIC
[5] = AK109, 10^6 CFU/ml, Mueller Hinton agar, 37° C., 16 hours, read-out: MIC
[6] = 10^6 CFU/ml, Mueller Hinton agar, 37° C., 16 hours, read-out: MIC
[7] = GN5407, 10^6 CFU/ml, β-Lactamase-producing strain, 37° C., 16 hours, read-out: MIC
[8] = Enterobacter cloacae, 963, 16 h
[9] = HX19, 10^6 CFU/ml, Mueller Hinton agar, 37° C., 16 hours, read-out: MIC
[10] = Burkholderia cepacia, 23, 10^6 CFU/ml, Mueller Hinton agar, 37° C., 16 hours, read-out: MIC
[11] = NO.4, 10^6 CFU/ml, Mueller Hinton agar, 37° C., 16 hours, read-out: MIC
[12] = IFO3445, 10^6 CFU/ml, Mueller Hinton agar, 37° C., 16 hours, read-out: MIC

Structure (SMILES)	MIC (Ps. cepacia 23; Burkholderia cepacia, 23, 16 h) [µg/mL]	MIC (P. vulgaris No. 33*; 16 h) [µg/mL]	MIC (E. coli CSH2(RK1)*) [µg/mL]	MIC (S. marcescens IAM 1184; [3]) [µg/mL]	MIC (Ps. aeruginosa AKR17) [µg/mL]	MIC (K. pneumoniae PC1-602; [4]) [µg/mL]	MIC (E. coli GN5482*) [µg/mL]	MIC (Ps. aeruginosa IFO3445; IFO3445, 16 h) [µg/mL]	MIC (S. aureus 209P NIHJ-JC1; [6]) [µg/mL]	MIC (E. cloacae 963; [8]) [µg/mL]	MIC (E. coli NIHJ JC2) [µg/mL]	MIC (E. coli CSH(RE45)*) [µg/mL]	MIC (S. marcescens No. 16-2*; 16 h) [µg/mL]	MIC (E. cloacae Nek 39*; [1]) [µg/mL]	MIC (P. vulgaris HX-19; [9]) [µg/mL]	MIC (K. pneumoniae No. 42*; 16 h) [µg/mL]	MIC (K. oxytoca GN10650*; GN10650, 16 h) [µg/mL]	MIC (A. calcoaceticus No. 4; [11]) [µg/mL]	MIC (M. morganii GN5407*; GN5407, 16 h) [µg/mL]	MIC (Ps. aeruginosa AK 109; AK109, 16 h) [µg/mL]	also measured
C=C(O/N=C(\C(=O)N[C@@H]1C(=O)N2C(C(=O)O)=C(CSc3nc(-c4ccc(O)c(O)c4)cs3)CS[C@H]12)c1csc(N)n1)C(=O)O [Example 12, disodium 7β-[2-(2-aminothiazol-4-yl)-2-(1-carboxylato-1-vinyloxyimino)acetamido]-3-[4-(3,4-dihydroxyphenyl)thiazol-2-yl]thiomethyl-3-cephem-4-carboxylate(syn-isomer)]	0.025	0.025	0.025	0.05	3.12	< 0.006	0.39	0.78	3.12	0.2	0.39	0.025	0.39	0.1	< 0.006	–	–	–	–	–	MIC (K. pneumoniae No. 42*; [1]): 0.05 µg/mL; MIC (K. oxytoca GN10650*; [2]): 0.1 µg/mL; MIC (A. calcoaceticus No. 4; NO.4, 16 h): 0.2 µg/mL; MIC (Ps. aeruginosa AK 109; [5]): 1.56 µg/mL; MIC (M. morganii GN5407*; [7]): 0.05 µg/mL
C=C(O/N=C(\C(=O)N[C@@H]1C(=O)N2C(C(=O)[O-])=C(C[n+]3ccc(C(=O)O)cc3)CS[C@H]12)c1csc(N)n1)C(=O)O [Example 5, 7β-[2-(2-aminothiazol-4-yl)-2-(1-carboxy-1-vinyloxyimino)acetamido]-3-(4-carboxy-1-pyridinio)methyl-3-cephem-4-carboxylate (syn-isomer)]	–	–	0.2 (≈ 0.348 µM)	–	> 100	–	1.56 (≈ 2.72 µM)	–	12.5 (≈ 21.8 µM)	0.2 (≈ 0.348 µM)	0.2 (≈ 0.348 µM)	0.05 (≈ 0.087 µM)	6.25 (≈ 10.9 µM)	3.12 (≈ 5.43 µM)	< 0.006	0.39 (≈ 0.679 µM)	0.39 (≈ 0.679 µM)	50 (≈ 87 µM)	0.025 (≈ 0.0435 µM)	–	MIC (Ps. cepacia 23; [10]): 12.5 µg/mL (≈ 21.8 µM); MIC (P. vulgaris No. 33*; [1]): 0.0125 µg/mL (≈ 0.0218 µM); MIC (S. marcescens IAM 1184; IAM1184, 16 h): 0.025 µg/mL (≈ 0.0435 µM); MIC (K. pneumoniae PC1-602; PC1602, 16 h): 0.025 µg/mL (≈ 0.0435 µM); MIC (Ps. aeruginosa AK 109; [5]): 25 µg/mL (≈ 43.5 µM); MIC (Ps. aeruginosa IFO3445; [12]): 25 µg/mL (≈ 43.5 µM)
C=C(O/N=C(\C(=O)N[C@@H]1C(=O)N2C(C(=O)O)=C(CSc3nnc(-c4ccc(O)c(O)c4)o3)CS[C@H]12)c1csc(N)n1)C(=O)O [Example 11, disodium 7β-[2-(2-aminothiazol-4-yl)-2-(1-carboxy-1-vinyloxyimino)acetamido]-3-[5-(3,4-dihydroxyphenyl)-1,3,4-oxadiazol-2-yl]thiomethyl-3-cephem-4-carboxylate (syn-isomer)]	–	–	< 0.006	0.025	3.12	< 0.006	0.1	0.39	12.5	–	0.05	0.05	0.2	0.025	< 0.006	–	–	–	–	0.2	MIC (Ps. cepacia 23; [10]): < 0.006 µg/mL; MIC (P. vulgaris No. 33*; [1]): 0.0125 µg/mL; MIC (K. pneumoniae No. 42*; [1]): 0.025 µg/mL; MIC (K. oxytoca GN10650*; [2]): 0.025 µg/mL; MIC (A. calcoaceticus No. 4; NO.4, 16 h): 0.1 µg/mL; MIC (M. morganii GN5407*; [7]): 0.0125 µg/mL; MIC (E. cloacae 963; Enterobacter cloacae, 963, 10^6 CFU/ml, Mueller Hinton agar, 37° C., 16 hours, read-out: MIC): 0.025 µg/mL
C=C(O/N=C(\C(=O)N[C@@H]1C(=O)N2C(C(=O)[O-])=C(C[n+]3cccc4c3CCC4)CS[C@H]12)c1csc(N)n1)C(=O)O [Example 2, 7β-[2-(2-aminothiazol-4-yl)-2-(1-carboxy-1-vinyloxyimino)acetamido]-3-(2,3-cychlopenteno-pyridinio)methyl-3-cephem-4-carboxylate (syn-isomer)]	0.39 (≈ 0.683 µM)	0.025 (≈ 0.0438 µM)	0.025 (≈ 0.0438 µM)	0.0125 (≈ 0.0219 µM)	100 (≈ 175 µM)	0.0125 (≈ 0.0219 µM)	0.1 (≈ 0.175 µM)	1.56 (≈ 2.73 µM)	–	0.05 (≈ 0.0876 µM)	0.05 (≈ 0.0876 µM)	0.78 (≈ 1.37 µM)	0.78 (≈ 1.37 µM)	–	–	0.39 (≈ 0.683 µM)	0.1 (≈ 0.175 µM)	3.12 (≈ 5.47 µM)	0.025 (≈ 0.0438 µM)	1.56 (≈ 2.73 µM)	MIC (S. aureus 209P NIHJ-JC1; 16 h): 1.56 µg/mL (≈ 2.73 µM); MIC (E. cloacae Nek 39*; 16 h): 0.2 µg/mL (≈ 0.351 µM); MIC (P. vulgaris HX-19; HX19, 16 h): 0.025 µg/mL (≈ 0.0438 µM)
CC(C)(O/N=C(\C(=O)N[C@@H]1C(=O)N2C(C(=O)[O-])=C(C[n+]3ccccc3)CS[C@H]12)c1csc(N)n1)C(=O)O [Ceftazidime, reference compound]	0.78 (≈ 1.43 µM)	0.5 (≈ 0.915 µM)	0.1 (≈ 0.183 µM)	–	> 100	–	1.56 (≈ 2.85 µM)	1.56 (≈ 2.85 µM)	–	0.1 (≈ 0.183 µM)	0.1 (≈ 0.183 µM)	0.2 (≈ 0.366 µM)	1.56 (≈ 2.85 µM)	–	–	0.39 (≈ 0.714 µM)	0.1 (≈ 0.183 µM)	–	0.1 (≈ 0.183 µM)	0.78 (≈ 1.43 µM)	MIC (S. marcescens IAM 1184; IAM1184, 16 h): < 0.006 µg/mL; MIC (K. pneumoniae PC1-602; PC1602, 16 h): 0.25 µg/mL (≈ 0.457 µM); MIC (A. calcoaceticus No. 4; NO.4, 16 h): 6.25 µg/mL (≈ 11.4 µM); MIC (S. aureus 209P NIHJ-JC1; 16 h): 6.25 µg/mL (≈ 11.4 µM); MIC (E. cloacae Nek 39*; 16 h): 1.56 µg/mL (≈ 2.85 µM); MIC (P. vulgaris HX-19; HX19, 16 h): 0.025 µg/mL (≈ 0.0457 µM)
C=C(O/N=C(\C(=O)N[C@@H]1C(=O)N2C(C(=O)O)=C(C[n+]3ccc(CS(=O)(=O)[O-])cc3)CS[C@H]12)c1csc(N)n1)C(=O)O [Example 7, 7β-[2-(2-aminothiazol-4-yl)-2-(1-carboxy-1-vinyloxyimino]acetamido]-3-(4-sulfonatomethyl-1-pyridinio)methyl-3-cephem-4-carboxylic acid (syn-isomer)]	–	–	0.2 (≈ 0.32 µM)	0.0125 (≈ 0.02 µM)	> 100	–	1.56 (≈ 2.5 µM)	–	25 (≈ 40 µM)	0.1 (≈ 0.16 µM)	0.1 (≈ 0.16 µM)	0.05 (≈ 0.08 µM)	–	3.12 (≈ 4.99 µM)	0.0125 (≈ 0.02 µM)	0.39 (≈ 0.624 µM)	0.39 (≈ 0.624 µM)	50 (≈ 80 µM)	0.025 (≈ 0.04 µM)	–	MIC (Ps. cepacia 23; [10]): 12.5 µg/mL (≈ 20 µM); MIC (P. vulgaris No. 33*; [1]): 0.0125 µg/mL (≈ 0.02 µM); MIC (K. pneumoniae PC1-602; PC1602, 16 h): 0.025 µg/mL (≈ 0.04 µM); MIC (Ps. aeruginosa AK 109; [5]): 25 µg/mL (≈ 40 µM); MIC (Ps. aeruginosa IFO3445; [12]): 3.12 µg/mL (≈ 4.99 µM); MIC (S. marcescens No. 16-2*; [1]): 3.12 µg/mL (≈ 4.99 µM)
C=C(O/N=C(\C(=O)N[C@@H]1C(=O)N2C(C(=O)O)=C(CSc3ncc(-c4ccc(O)c(O)c4)o3)CS[C@H]12)c1csc(N)n1)C(=O)O [Example 14, disodium 7β-[2-(2-aminothiazol-4-yl)-2-(1-carboxylato-1-vinyloxyimino)acetamido]-3-[5-(3,4-dihydroxyphenyl)oxazol-2-yl]thiomethyl-3-cephem-4-carboxylate (syn-isomer)]	0.0125	0.025	0.0125	0.05	3.12	< 0.006	1.56	0.78	–	0.39	0.78	0.025	0.39	–	< 0.006	–	0.1	0.2	–	0.78	MIC (K. pneumoniae No. 42*; [1]): 0.05 µg/mL; MIC (S. aureus 209P NIHJ-JC1; 16 h): 6.25 µg/mL; MIC (M. morganii GN5407*; [7]): 0.05 µg/mL; MIC (E. cloacae Nek 39*; 16 h): 0.1 µg/mL
C=C(O/N=C(\C(=O)N[C@@H]1C(=O)N2C(C(=O)O)=C(COC(C)=O)CS[C@H]12)c1csc(N)n1)C(=O)O [Example 17, disodium 7β-[2-(2-aminothiazol-4-yl)-2-(1-carboxylato-1-vinyloxyimino)acetamido]cephalosporanate (syn-isomer)]	1.56	0.1	0.025	0.0125	> 100	0.0125	1.56	6.25	12.5	0.1	0.1	0.1	–	3.12	< 0.006	0.2	0.05	25	0.025	6.25	MIC (S. marcescens No. 16-2*; [1]): 3.12 µg/mL
